# Assay results reported in paper PMC8249445, “Complex effects of macrolide venturicidins on bacterial F-ATPases likely contribute to their action as antibiotic adjuvants” (Scientific Reports, 2021).
# Read-outs that look alike come from different tables or passages of the source.
# Key:
# [1] = system: FOF1 from M. smegmatis (MsFOF1); set-up: method as in PMID 33299175; settings: cited from earlier work
# [2] = target: T1, FOF1-ATPase of WT E. coli membranes (Escherichia coli, UniProt P68699); assay: biochemical; type: biochemical; settings: for ATPase activity during the last 3 min of assays: 0.1 mM DCCD alone (trace 1); for Ki: read-out: Ki (early inhibition)
# T1 construct: To express haploid levels of EcFOF1 containing WT-ε or ε88-stop; expressed in transfected cells; host or cells: E. coli strain XH1 (chromosomal atpC deletion) carrying pMBε1; inverted membrane vesicles
# Description: ATP hydrolysis is enzyme-coupled to conversion of NADH to NAD^+, which results in decreased light absorbance; thus, a larger rate of ATP hydrolysis is indicated by a steeper downward slope. The system also rapidly regenerates ATP, minimizing the concentration of product ADP during the assay. Unless noted, assays were preincubated to establish a steady state hydrolysis rate (see “Methods”) before the ‘zero’ point of measurements.
# (§1) Plasmid pXH302S, which encodes the WT atpC gene and expresses near haploid levels of the ε subunit, was subjected to fusion PCR mutagenesis to construct plasmid pMBε1, with an N-terminal affinity tag ([…]) added prior to the initial Met residue. To express the ε88-stop subunit, an AfeI-ScaI restriction fragment of WT pMBε1 was replaced by the analogous fragment from pH6ε88-stop[46]. To express haploid levels of EcFOF1 containing WT-ε or ε88-stop, the appropriate version of pMBε1 was transformed into E. coli strain XH1, which has a chromosomal deletion of the atpC gene for ε[54]. For these transformed strains, cultures were grown and inverted membrane vesicles (IMV) were prepared according to [55]. WT ε, with the same N-terminal His6-tag, was over-expressed from pH6ε and purified as described.
# ATP hydrolysis by membrane vesicles was assayed spectrophotometrically[57] at 30 °C using an open-chamber, diode array spectrophotometer (Hewlett Packard 8453 UV–Vis) as described in[29]. The assay medium (1 ml per assay) contained 20 mM Mops/Tris, pH 8.0, 0.2 mM EDTA, 10 mM CH3COOK, 1 mM ATP, 3.2 mM Mg(CH3COO)2, 1 mM phosphoenolpyruvate, at least 0.3 mM NADH, 0.1 mg/ml pyruvate kinase, 0.1 mg/ml lactate dehydrogenase, 5 mM KCN, and 5 μM carbonyl cyanide 4-(trifluoromethoxy)-phenylhydrazone. […] To avoid interference of this increase with the changes of ATPase activity induced by venturicidins, unless indicated otherwise, measurement of ATPase activities were started 60 min after addition of membranes to the complete assay medium. […] To keep absorbance between 1.5 and 2 units after the 60-min preincubation, up to 0.2 mM additional NADH was added to the assay medium. In figures displaying activity traces, some traces are shifted vertically for visual clarity.
# [3] = target: T2, PaFOF1 in membranes from P. aeruginosa strain PAO1 (Pseudomonas aeruginosa, UniProt Q9HT15); assay: ATP hydrolysis by P. aeruginosa PAO1 membranes, enzyme-coupled spectrophotometric assay; type: biochemical
# T2 construct: endogenous in cells; host or cells: P. aeruginosa strain PAO1, inverted membrane vesicles
# Description: P. aeruginosa strain PAO1 was grown in LB medium at 37 °C as described. For preparation of IMV, final cultures used 1 L of LB per 2L baffled flask and were inoculated from an overnight culture at an initial OD600 ~ 0.025. Cultures were shaken at 250 rpm and monitored until they reached mid- to late-logarithmic growth phase (OD600, 1–1.4). Cultures were chilled and subsequent steps for cell lysis and isolation of IMV were done at 4 °C. Cells were sedimented by centrifugation (3,700 × g, 30 min). Cells from 1 to 2 L of culture (~ 2–3 g wet cells/L) were resuspended in 25–40 ml of STEM buffer (TEM buffer plus sucrose[55]), transferred to a 50 ml Oak Ridge tube, sedimented again (11,617 × g, 10 min), resuspended in 20–40 ml of STEM and frozen at -80 °C. Thawed cells were lysed by two sequential passages through an SLM-Aminco French pressure cell at ~ 16,000 psi, essentially as described for E. coli[55]; the pressure cell was enclosed in a clear biohazard bag (MiniGrip, IP2024B3T) during use to contain any aerosols formed. Unlysed cells and cell wall debris were removed by centrifugation (50 ml Oak Ridge tubes, 16,743 × g, 25 min): the supernate was diluted with MTGM7.5 buffer (50 mM MOPS-TRIS, 10%(v/v) glycerol, 5 mM Mg(CH3COO)2, pH 7.5) and centrifugation was repeated at least twice, recovering the supernate each time. The final supernatant lysate was stored at -80 °C. To isolate IMV, the cleared lysate was thawed quickly and diluted with MTGM7.5 as needed to fill 1 or 2 polycarbonate tubes for use in a Beckman Ti70 rotor. The IMV (membranes) were sedimented by ultracentrifugation (250,000 × g max) for 1 h, the membranes were resuspended in MTGM7.5 buffer to fill one Ti70 tube and ultracentrifugation was repeated for 45 min. The membranes were resuspended in a small volume of MTGM7.5 buffer (typically ≥ 10 mg membrane protein/ml) and homogenized manually (Potter–Elvehjem type). Small aliquots of the final membrane sample were quick-frozen in liquid nitrogen and stored at − 80 °C.
# (§2) ATP hydrolysis by membrane vesicles was assayed spectrophotometrically[57] at 30 °C using an open-chamber, diode array spectrophotometer (Hewlett Packard 8453 UV–Vis) as described in[29]. The assay medium (1 ml per assay) contained 20 mM Mops/Tris, pH 8.0, 0.2 mM EDTA, 10 mM CH3COOK, 1 mM ATP, 3.2 mM Mg(CH3COO)2, 1 mM phosphoenolpyruvate, at least 0.3 mM NADH, 0.1 mg/ml pyruvate kinase, 0.1 mg/ml lactate dehydrogenase, 5 mM KCN, and 5 μM carbonyl cyanide 4-(trifluoromethoxy)-phenylhydrazone. As noted before, the rate of ATP hydrolysis by membranes increases to a small degree during assays. This is due, at least in part, to dissociation of a small fraction of EcF1 and/or ε from the membranes, since the increase is inhibited by added ε (e.g., Fig. 5). To avoid interference of this increase with the changes of ATPase activity induced by venturicidins, unless indicated otherwise, measurement of ATPase activities were started 60 min after addition of membranes to the complete assay medium. This minimizes further increases in ATPase rate during control assays to < 15%. To keep absorbance between 1.5 and 2 units after the 60-min preincubation, up to 0.2 mM additional NADH was added to the assay medium. In figures displaying activity traces, some traces are shifted vertically for visual clarity.
# [4] = system: mitoFOF1; set-up: method as in PMID 124668; settings: cited from earlier work
# [5] = target: T3, E. coli membranes with FOF1 lacking the ε subunit's CTD (ε88-stop) (Escherichia coli, UniProt P68699); assay: ATP hydrolysis by ε88-stop E. coli membranes, enzyme-coupled spectrophotometric assay; type: biochemical
# T3 construct: To express haploid levels of EcFOF1 containing WT-ε or ε88-stop; expressed in transfected cells; host or cells: E. coli strain XH1 (chromosomal atpC deletion) carrying the ε88-stop version of pMBε1; inverted membrane vesicles
# Source text: We next investigated whether the ε-inhibited state of EcFOF1 also impacts interactions of ventA with the enzyme. The N-terminal domain (NTD) of ε is required for FOF1 assembly and functional coupling of F1 to FO in eukaryotic and bacterial species; the C-terminal domain (CTD) of ε can auto-inhibit FOF1 and isolated F1 from some bacteria and from chloroplasts, but the mitochondrial homolog (δ) is not inhibitory[39],[40]. Thus we measured the effects of ventA on ATPase activity of E. coli membranes expressing ε88-stop, which lacks the autoinhibitory εCTD (Fig. 3). From Table 1 (100% ATPase values), it is clear that selenite activates membrane ATPase more (fourfold) for ε88-stop than for WT (2.8-fold). This is because, without the inhibitory εCTD, more enzyme complexes shift to the MgADP-inhibited state, which can be activated by selenite. […] In contrast, early inhibition of ATPase by ventA has similar Ki values for WT and ε88-stop membranes in the absence (0.7 vs 0.5 μM) or in the presence of selenite (0.23 vs 0.09 μM).
# as §1, §2
# [6] = system: S. aureus; set-up: method as in PMID 28874470; settings: cited from earlier work
# [7] = system: E. coli membrane ATPase; settings: read-out: half-maximal inhibitory concentration of venturicidin; obtained from earlier data; more divergent assay conditions; cited from earlier work
# [8] = system: P. aeruginosa; set-up: method as in PMID 6406266; settings: cited from earlier work
# [9] = target: F1; set-up: method as in PMID 23400782; settings: read-out: KD of ε dissociation from F1; cited from earlier work
# [10] = WT, 38.5 mM selenite (Fig. S1 panel B)
compound,measurement,setting,value
"COc1nc2ccc(Br)cc2cc1[C@@H](c1ccccc1)[C@@](O)(CCN(C)C)c1cccc2ccccc12 [BDQ, bedaquiline]",Effect of micromolar BDQ on ATPase activity,[1]; micromolar BDQ,most activity was restored
same,Inhibition of ATPase,[1]; nanomolar BDQ,~ 80%
"C(=NC1CCCCC1)=NC1CCCCC1 [DCCD, N,N′-dicyclohexylcarbodiimide]",ATPase activity during the last 3 min of assays,[2]; 38.5 mM selenite,0.85 U/mg
same,ATPase activity during the last 3 min of assays,[2]; no selenite,0.20 (± 0.02) U/mg
same,inhibition at 100 µM,[2]; read-out: Inhibition of ATPase activity,73%
[N-]=[N+]=[N-] [azide],Inhibition of ATPase activity,[2]; 6 µM azide in the assay,~ 50%
same,100% ATPase (specific activity just before addition of ventA),[2]; WT + 6 μM azide,0.42 (± 0.02) U/mg
same,Inhibition of ATPase activity,[3]; excess azide,80–90%
CC[C@H]1/C=C/C=C/C[C@@H](C)[C@H](O)[C@@](C)(O)C(=O)[C@@H](C)[C@H](O)[C@@H](C)C(=O)[C@@H](C)[C@H](O)[C@@H](C)/C=C/C(=O)O[C@@H]2[C@H](C)[C@H](CC1)O[C@]1(CC[C@H](C)[C@H](C[C@@H](C)O)O1)[C@H]2C [oligomycin],Effect on ATPase activity of membrane and detergent-solubilized mitoFOF1,[4],inhibited ATPase activity of both forms
O=[Se](O)O [selenite],100% ATPase (specific activity just before addition of ventA),[2]; WT + 38.5 mM selenite,2.3 (± 0.2) U/mg
same,Stimulation of ATPase activity,"[2]; optimal selenite (38.5 mM), WT membranes",2.8 fold
same,Activation of membrane ATPase,"[5]; selenite, ε88-stop membranes",fourfold
same,100% ATPase (specific activity just before addition of ventA),[5]; ε88stop + 38.5 mM selenite,3.4 (± 0.5) U/mg
same,Activation of membrane ATPase,[3]; selenite,~ fourfold
"CCC(=O)C(C)C(O)C(C)CC(C)C1OC(=O)CC2(O)CC=C(C)C(O2)C(C)=CCCCC(OC2CC(O)C(O)C(C)O2)C=CC(C)CC1C (stereo not shown) [ventB, venturicidin B]",Reduction of Ki by selenite,[2]; WT,2.3 fold
same,y0 (ATPase at saturating venturicidin),[2]; [10],28% (±7)
same,"y1 (venturicidin-sensitive ATPase, best fit of early rates)",[2]; [10],73% (±6)
same,"y1 (venturicidin-sensitive ATPase, best fit of early rates)","[2]; WT, absence of selenite (Fig. S1 panel A), y0 fixed as 0",136% (±7)
same,Ki for inhibition of early rate relative to respective Ki of ventA,"[2]; WT, with or without selenite",≥ tenfold
same,Ki,[2]; [10],4 µM
same,Ki,"[2]; WT, absence of selenite (Fig. S1 panel A)",9 µM
Oligomycin A,Adjuvant activity for polymyxin B,[6],potent adjuvant
venturicidin,IC50,[7],~7 µM
same,Decrease of cellular ATP,[8]; anaerobic fermentation of L-arginine,~ tenfold
same,Time to eliminate Δψ and flagellar motility,[8]; anaerobic,≤ 3.5 min
same,Reduction of cellular ATP,[8]; during respiration,~ fivefold
"ε: purified WT ε subunit of E. coli FOF1 with N-terminal His6-tag, added exogenously",Late rate (last 3 min of assay),"[2]; 67 nM ε added after 9.5 μM ventA, 38.5 mM selenite (Fig. 5A #4)",0.28 U/mg
same,Late rate (last 3 min of assay),"[2]; 67 nM ε, 38.5 mM selenite (Fig. 5A #2)",1.4 U/mg
same,Immediate inhibition of ATPase activity,"[2]; excess ε (67 nM), without ventA, selenite present",~ 30%
same,Immediate inhibition of ventA-recovered ATPase activity,"[2]; excess ε added after 9.5 μM ventA, selenite present (Fig. 5A trace 4)",~ 90%
same,Kd,[9],< 0.001 µM
